Series [1] deals with Rattus norvegicus. The series is described as follows: Increase in caspase 3 activation in Hans Wistar rat hollow fiber model implanted with human COLO205 cells at 6 mg/kg, iv after 48 hrs. Format: functional, organism-based. The arrangement: dose 6 mg/kg. To be noted: COLO 205.
For series [2], the system named is Rattus norvegicus. The series is described as follows: Increase in caspase 3 activation in Hans Wistar rat hollow fiber model implanted with human COLO205 cells at 12 mg/kg, iv after 48 hrs. The series is classed as functional, organism-based. The arrangement: dose 12 mg/kg. The settings on record: COLO 205.
Series [3] has as its target Tyrosine-protein kinase Lck (Homo sapiens) (UniProt P06239). The series is described as follows: Inhibition of LCK at 10 uM.
Series [4] concerns the target T1, Polyunsaturated fatty acid 5-lipoxygenase (Homo sapiens) (UniProt P09917).
T1 sequence (whole entry): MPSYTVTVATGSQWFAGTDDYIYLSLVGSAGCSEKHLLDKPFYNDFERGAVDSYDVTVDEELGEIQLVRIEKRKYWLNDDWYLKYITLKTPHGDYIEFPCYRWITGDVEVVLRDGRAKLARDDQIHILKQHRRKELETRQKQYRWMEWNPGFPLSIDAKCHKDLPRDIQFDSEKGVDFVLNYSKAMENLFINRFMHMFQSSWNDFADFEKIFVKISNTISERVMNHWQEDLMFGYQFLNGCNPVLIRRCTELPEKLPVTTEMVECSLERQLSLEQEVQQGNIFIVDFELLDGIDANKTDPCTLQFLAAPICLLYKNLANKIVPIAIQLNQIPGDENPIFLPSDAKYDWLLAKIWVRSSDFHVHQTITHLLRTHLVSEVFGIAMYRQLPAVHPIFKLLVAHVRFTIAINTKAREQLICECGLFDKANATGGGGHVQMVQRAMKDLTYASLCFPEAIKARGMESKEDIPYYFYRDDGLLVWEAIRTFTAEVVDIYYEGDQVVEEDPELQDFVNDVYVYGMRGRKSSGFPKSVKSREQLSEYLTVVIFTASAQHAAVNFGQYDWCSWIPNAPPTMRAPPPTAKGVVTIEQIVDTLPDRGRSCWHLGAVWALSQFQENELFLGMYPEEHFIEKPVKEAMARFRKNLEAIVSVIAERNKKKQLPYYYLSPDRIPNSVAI
The series is described as follows: Inhibition of human 5-lipoxygenase at 10 uM.

For series [5], the target named is Ribosomal protein S6 kinase alpha-1 (Homo sapiens) (UniProt Q15418). The series is described as follows: Inhibition of MAPKAP-K1a at 10 uM.
Chain of Ribosomal protein S6 kinase alpha-1 (Homo sapiens) (Q15418 whole entry): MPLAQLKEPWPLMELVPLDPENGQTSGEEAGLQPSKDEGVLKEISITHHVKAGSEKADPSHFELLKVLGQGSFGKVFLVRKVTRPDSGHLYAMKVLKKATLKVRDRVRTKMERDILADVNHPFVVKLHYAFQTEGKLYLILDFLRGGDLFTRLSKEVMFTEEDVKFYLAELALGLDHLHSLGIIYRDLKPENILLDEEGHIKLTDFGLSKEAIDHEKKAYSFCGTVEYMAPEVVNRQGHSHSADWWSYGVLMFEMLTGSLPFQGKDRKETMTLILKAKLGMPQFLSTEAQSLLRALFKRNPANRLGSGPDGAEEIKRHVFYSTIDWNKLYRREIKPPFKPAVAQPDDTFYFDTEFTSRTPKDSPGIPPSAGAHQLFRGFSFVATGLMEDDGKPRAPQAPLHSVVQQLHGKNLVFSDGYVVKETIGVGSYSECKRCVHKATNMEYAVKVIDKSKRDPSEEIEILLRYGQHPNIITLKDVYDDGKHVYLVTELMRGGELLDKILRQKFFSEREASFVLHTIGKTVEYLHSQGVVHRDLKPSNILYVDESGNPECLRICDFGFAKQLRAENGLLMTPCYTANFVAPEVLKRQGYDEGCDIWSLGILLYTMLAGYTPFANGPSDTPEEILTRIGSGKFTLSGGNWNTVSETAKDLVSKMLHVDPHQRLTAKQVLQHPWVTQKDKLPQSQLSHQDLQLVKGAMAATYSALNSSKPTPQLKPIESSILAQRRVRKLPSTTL
For series [6], the system named is Rattus norvegicus. The series is described as follows: Increase monasters formation in Hans Wistar rat hollow fiber model implanted with human COLO205 cells at 6 mg/kg, iv after 24 hrs. Format: functional, organism-based. More on the design: dose 6 mg/kg. To be noted: COLO 205.
The subject of series [7] is Rattus norvegicus. The series is described as follows: Increase monasters formation in Hans Wistar rat hollow fiber model implanted with human COLO205 cells at 6 mg/kg, iv after 48 hrs. The settings on record: COLO 205. The arrangement: dose 6 mg/kg. The series is classed as functional, organism-based.
The subject of series [8] is Rattus norvegicus. The series is described as follows: Increase monasters formation in Hans Wistar rat hollow fiber model implanted with human COLO205 cells at 12 mg/kg, iv after 24 hrs. More on the design: dose 12 mg/kg. To be noted: COLO 205. Format: functional, organism-based.
In series [9] the test system is Rattus norvegicus. The series is described as follows: Increase monasters formation in Hans Wistar rat hollow fiber model implanted with human COLO205 cells at 12 mg/kg, iv after 48 hrs. Format: functional, organism-based. More on the design: dose 12 mg/kg. The settings on record: COLO 205.
Series [10] has as its system Rattus norvegicus. The series is described as follows: Increase of phospho-histone-H3 positive cells in Hans Wistar rat hollow fiber model implanted with human COLO205 cells at 6 mg/kg, iv after 24 hrs. More on the design: dose 6 mg/kg. The series is classed as functional, organism-based. The settings on record: COLO 205.
For series [11], the system named is Rattus norvegicus. The series is described as follows: Increase of phospho-histone-H3 positive cells in Hans Wistar rat hollow fiber model implanted with human COLO205 cells at 12 mg/kg, iv after 24 hrs. The series is classed as functional, organism-based. The arrangement: dose 12 mg/kg. To be noted: COLO 205.
For series [12], the target named is Somatostatin receptor type 1 (Homo sapiens) (UniProt P30872). The series is described as follows: Binding affinity to human SST1 receptor at 10 uM by radioligand displacement assay. In general terms: Displacement assays read how much labelled ligand stays bound in the presence of the test substance.
Chain of Somatostatin receptor type 1 (Homo sapiens) (P30872 whole entry): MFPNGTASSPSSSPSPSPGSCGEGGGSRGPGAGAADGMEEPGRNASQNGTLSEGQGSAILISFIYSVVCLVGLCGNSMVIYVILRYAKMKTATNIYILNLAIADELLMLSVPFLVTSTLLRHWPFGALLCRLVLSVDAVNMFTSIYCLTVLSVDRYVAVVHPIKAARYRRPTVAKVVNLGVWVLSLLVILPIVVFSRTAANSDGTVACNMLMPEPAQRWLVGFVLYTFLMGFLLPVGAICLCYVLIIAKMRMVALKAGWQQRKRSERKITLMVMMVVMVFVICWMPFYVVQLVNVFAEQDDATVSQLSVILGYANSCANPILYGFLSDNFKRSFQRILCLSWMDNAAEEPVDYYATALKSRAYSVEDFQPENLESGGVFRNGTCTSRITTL
For series [13], the species on record is Cavia porcellus. The series is described as follows: Binding affinity to L-type calcium channel benzothiazepine binding site in guinea pig ileum at 10 uM by radioligand displacement assay. Format: tissue-based.
The species entered for series [14] is Cavia porcellus. The series is described as follows: Binding affinity to L-type calcium channel phenylalkylamine binding site in guinea pig ileum at 10 uM by radioligand displacement assay. The series is classed as tissue-based.
The species named for series [15] is Cavia porcellus. The series is described as follows: Binding affinity to sodium channel site 2 in guinea pig atria at 10 uM by radioligand displacement assay.
For series [16], the target named is T2, Kinesin-like protein KIF11 (Homo sapiens, UniProt P52732).
T2 sequence (P52732 whole entry): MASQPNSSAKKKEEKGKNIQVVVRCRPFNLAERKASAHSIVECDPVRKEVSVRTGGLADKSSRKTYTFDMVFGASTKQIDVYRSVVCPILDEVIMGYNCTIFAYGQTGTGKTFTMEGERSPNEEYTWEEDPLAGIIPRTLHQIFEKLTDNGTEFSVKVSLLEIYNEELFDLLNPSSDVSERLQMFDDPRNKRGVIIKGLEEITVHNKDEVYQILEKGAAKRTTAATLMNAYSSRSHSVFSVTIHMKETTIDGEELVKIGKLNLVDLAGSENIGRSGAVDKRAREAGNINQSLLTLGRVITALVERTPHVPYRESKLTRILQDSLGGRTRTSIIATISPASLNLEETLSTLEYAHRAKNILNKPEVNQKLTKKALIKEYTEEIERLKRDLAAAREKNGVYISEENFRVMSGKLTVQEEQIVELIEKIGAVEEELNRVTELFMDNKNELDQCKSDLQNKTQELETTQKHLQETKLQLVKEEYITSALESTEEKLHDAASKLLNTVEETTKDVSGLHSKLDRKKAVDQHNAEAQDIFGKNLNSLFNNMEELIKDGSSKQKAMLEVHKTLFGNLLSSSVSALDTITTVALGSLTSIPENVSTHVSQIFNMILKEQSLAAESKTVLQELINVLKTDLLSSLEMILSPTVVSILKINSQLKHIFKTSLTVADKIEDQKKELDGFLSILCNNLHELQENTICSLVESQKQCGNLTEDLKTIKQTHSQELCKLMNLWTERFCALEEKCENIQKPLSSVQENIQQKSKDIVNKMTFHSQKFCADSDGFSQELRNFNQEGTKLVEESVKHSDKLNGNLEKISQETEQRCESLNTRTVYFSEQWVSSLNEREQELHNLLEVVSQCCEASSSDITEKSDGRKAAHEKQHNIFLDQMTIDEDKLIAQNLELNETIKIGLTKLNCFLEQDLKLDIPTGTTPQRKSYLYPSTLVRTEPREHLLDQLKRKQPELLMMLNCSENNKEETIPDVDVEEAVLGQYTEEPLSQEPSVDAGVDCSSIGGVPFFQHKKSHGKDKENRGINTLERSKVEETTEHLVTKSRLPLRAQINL
The series is described as follows: Inhibition of human recombinant C-terminal His6-tagged KSP ATPase activity after 1 hr by malachite green assay.

Series [17] can be described thus: Aqueous solubility of the compound in 0.1 M phosphate buffer at pH 7.4 after 24 hrs by HPLC-UV method. The series is classed as physicochemical.
Series [18] concerns COLO 205. The series is described as follows: Anticancer activity against human COLO205 cells after 72 hrs by MTS/PMS assay. The series is classed as functional, cell-based.
Series [19] in a line: Clearance in nude mouse. The series is classed as ADME, organism-based. The settings on record: in vivo.

Each structure is given as a SMILES string. Values after ≈ are worked out from the molar mass of the structure shown. Active and inactive are the calls of the source. The rule behind the calls is not given here.

Chain of Tyrosine-protein kinase Lck (Homo sapiens) (P06239 2-509 limits assumed): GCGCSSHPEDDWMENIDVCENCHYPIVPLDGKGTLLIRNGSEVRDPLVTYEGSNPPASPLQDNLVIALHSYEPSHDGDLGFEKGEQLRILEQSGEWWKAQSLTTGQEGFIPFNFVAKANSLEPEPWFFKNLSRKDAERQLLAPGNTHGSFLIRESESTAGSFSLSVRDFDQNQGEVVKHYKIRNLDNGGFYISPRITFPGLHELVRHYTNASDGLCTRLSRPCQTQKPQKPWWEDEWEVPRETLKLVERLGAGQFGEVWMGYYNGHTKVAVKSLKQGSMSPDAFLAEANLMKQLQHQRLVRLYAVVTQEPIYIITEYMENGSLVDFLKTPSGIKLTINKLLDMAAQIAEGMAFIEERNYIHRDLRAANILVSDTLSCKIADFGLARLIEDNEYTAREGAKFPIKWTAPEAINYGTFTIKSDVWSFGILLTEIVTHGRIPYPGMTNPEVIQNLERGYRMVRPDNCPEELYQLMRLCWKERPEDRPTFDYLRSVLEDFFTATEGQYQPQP

The term inhibition denotes the share of the control response that was lost under treatment. Turning to `Cc1ccc(C(=O)N(CCCN)C(c2nc3snc(C)c3c(=O)n2Cc2ccccc2)C(C)C)cc1` (single isomer, unassigned; (+)), the outcome in [1], in series [2], in [6], in [7], in series [8] and in series [9] was Active. Also, the result in series [10] and in series [11] was Active. In addition, the inhibition in series [3] worked out at 42%; in [4], 71%; in series [5] it was 35%; in series [12] it was 80%; in series [13], 87%; in series [14] it was 76%. Also, in series [15], the inhibition worked out at 99%.
Broadly, the IC50 is the midpoint of a concentration-inhibition curve. As a reminder, the solubility is how much of the substance goes into solution per volume. As to `CCC(c1nc2snc(C)c2c(=O)n1Cc1ccccc1)N(CCCN)C(=O)c1ccc(C)cc1` (stereo in doubt; 62), the IC50 in series [16] came out at 3 nM; in series [18] (colo 205), 4 nM. This compound also registered a solubility at 24 h in [17] of 1570 µM (≈ 770 µg/mL).
As to `CCC(c1nc2sccc2c(=O)n1Cc1ccccc1)N(CCCN)C(=O)c1ccc(C)cc1` (stereo in doubt; 56), the concentration for half-maximal inhibition (IC50) in [16] was 8 nM; in series [18] (colo 205), 30 nM. The amount in solution in [17] (solubility at 24 h) came to 1240 µM (≈ 588 µg/mL).
Turning to `CCC(c1nc2ccsc2c(=O)n1Cc1ccccc1)N(CCCN)C(=O)c1ccc(C)c(F)c1` (stereo not given), the IC50 is 20 nM in series [16] and 60 nM in series [18] (Homo sapiens, COLO 205, 72 h).
Turning to `CCC(c1nc2sccc2c(=O)n1Cc1ccccc1)N(CCCN)C(=O)c1ccc(C)cc1` (single isomer, unassigned; (+)), the IC50 in series [16] worked out at 3 nM; in series [18] (colo 205), 8 nM.
Turning to `CCC(c1nc2c(C)nsc2c(=O)n1Cc1ccccc1)N(CCCN)C(=O)c1ccc(C)cc1` (stereo not given), the IC50 in series [16] is 5 nM; in [18] (Homo sapiens, COLO 205, 72 h), 45 nM.
Consider `CCC(c1nc2ccsc2c(=O)n1Cc1ccccc1)N(CCCN)C(=O)c1cccc(C(F)(F)F)c1` (stereo not given), for which the IC50 in series [16] was determined as 310 nM; in series [18] (Homo sapiens, COLO 205, 72 h), 580 nM.
Taken in the same sequence, the figures for `CCC(c1nc2ccsc2c(=O)n1Cc1ccccc1)N(CCCCN)C(=O)c1ccc(C)cc1` (stereo not given) were 390 nM and 980 nM.
The like results for `CCC(c1nc2ccsc2c(=O)n1Cc1ccccc1)N(CCCN)C(=O)c1ccc(F)cc1` (stereo not given) were, in that order, 140 nM and 570 nM.
Taken in the same sequence, the figures for `CCC(c1nc2ccsc2c(=O)n1Cc1ccccc1)N(CCCN)C(=O)c1ccc(C(C)C)cc1` (stereo not given) were 940 nM and 3300 nM.
On to `CCC(c1nc2sc(Cl)cc2c(=O)n1Cc1ccccc1)N(CCCN)C(=O)c1ccc(C)cc1` (stereo not given), for which the concentration for half-maximal inhibition (IC50) in series [16] stood at 85 nM; in series [18] (Homo sapiens, COLO 205, 72 h) it was 464 nM.
In the case of `CCC(c1nc2ccsc2c(=O)n1Cc1ccccc1)N(CCCN)C(=O)c1ccco1` (stereo not given), the IC50 in series [16] was found to be 500 nM; in series [18] (Homo sapiens, COLO 205, 72 h), 1550 nM.
The like results for `CCC(c1nc2ccsc2c(=O)n1Cc1cccc(F)c1)N(CCCN)C(=O)c1ccc(C)cc1` (stereo not given) were, in that order, 20 nM and 330 nM.
Taken in the same sequence, the figures for `CCC(c1nc2ccsc2c(=O)n1Cc1ccccc1)N(CCCN)C(=O)c1ccc2ccccc2c1` (stereo not given) were 30 nM and 200 nM.
Turning to `CCC(c1nc2ccsc2c(=O)n1Cc1ccc(Cl)cc1)N(CCCN)C(=O)c1ccc(C)cc1` (stereo not given), the IC50 in [16] is 210 nM; in [18] (Homo sapiens, COLO 205, 72 h), 1560 nM.
Taken in the same sequence, the figures for `CCC(c1nc2ccsc2c(=O)n1Cc1ccccc1F)N(CCCN)C(=O)c1ccc(C)cc1` (stereo not given) were 140 nM and 1360 nM.
Consider `CCC(c1nc2onc(C)c2c(=O)n1Cc1ccccc1)N(CCCN)C(=O)c1ccc(C)cc1` (stereo not given), for which the IC50 in [16] stood at 16 nM; in series [18] (Homo sapiens, COLO 205, 72 h) it was 23 nM. Further, the concentration in solution in series [17] (solubility at 24 h) came to 69 µM (≈ 32.7 µg/mL).
In the case of `CCC(c1nc2ccsc2c(=O)n1Cc1ccccc1)N(CC1CNCCO1)C(=O)c1ccc(C)cc1` (stereo not given), the IC50 came to 310 nM in [16] and 720 nM in [18] (Homo sapiens, COLO 205, 72 h).
Usually clearance stands for the volume of plasma or blood freed of the substance per unit of time. Read a low clearance as inefficient removal. Take `CCC(c1nc2snc(C)c2c(=O)n1Cc1ccccc1)N(CCCN)C(=O)c1ccc(C)cc1` (stereo in doubt; 68): the IC50 in [16] is 1 nM; in series [18] (Homo sapiens, COLO 205, 72 h), 3 nM. In [19], the clearance came out at 50 mL/min/kg.

The values are drawn from ChEMBL document CHEMBL1828558, “Discovery of (+)-N-(3-aminopropyl)-N-[1-(5-benzyl-3-methyl-4-oxo-[1,2]thiazolo[5,4-d]pyrimidin-6-yl)-2-methylpropyl]-4-methylbenzamide (AZD4877), a kinesin spindle protein inhibitor and potential anticancer agent” (J Med Chem, 2011).
